Measurements published in EP0357061B1, “Angiogenesis inhibitory agent” (priority 1988, dated 1990).
Structures can show the parent of a compound that is named as a salt. Marks after values point to notes of the source that are not given here.

What follows are compounds tested on bFGF-induced angiogenesis (assay: rat cornea micropocket method (angiogenesis inhibitory activity)). Details: rats with angiogenesis inhibitory activity / rats tested; sample pellet 20 »g; judged after 7 days.
Assay type: in vivo, Sprague-Dawley rats
Protocol: The product compound (I) obtained in the examples given below were evaluated for angiogenesis inhibitory activity by the rat cornea micropocket method.
Essentially the method of Gimbrone et al. [J. National Cancer Institute, 52, 413-419 (1974)] was followed. Thus, adult male Sprague-Dawley rats (11 to 16 weeks of age) were anesthetized with nembutal and locally anesthetized by instillation of xylocaine eyedrops onto the eyeball. The cornea was incised to a length of about 2 mm at about 2mm inside from the corneal circumference by means of an injection needle, and a sustained release pellet containing basic fibroblast growth factor (bFGF; bovine brain-derived, purified product; R & D) and a sustained release pellet containing the test sample were inserted side by side into the incision so that the bFGF pellet was located on the central side in the cornea. In the control group, the bFGF pellet and a sample-free pellet were inserted into the cornea. After 7 days and after 10 days, the cornea was observed under a stereoscopic microscope.
The sustained release pellets were prepared in the following manner. An ethylene-vinyl acetate copolymer (Takeda Chemical Industries) was dissolved in dichloromethane to a concentration of 8%. A 3-»l portion of the solution was air-dried on a glass dish, an aqueous solution of bFGF (250 ng) was then placed thereon and air-dried and, finally 3 »l of the above ethylene-vinyl acetate copolymer solution was placed further thereon and air-dried to give a laminate consisting of two copolymer layers and a bFGF layer sandwiched therebetween. This sandwich sheet was made round into a bFGF pellet. The test sample pellets were prepared by dissolving each sample in ethanol in a concentration of 20 »g/2 »l, mixing the solution (2 »l) with 6 »l of an ethylene-vinyl acetate copolymer solution, air-drying the mixed solution on a glass dish and making the thus-obtained sheet round.

| SMILES | Inhibition rate |
| --- | --- |
| CO[C@@H]1[C@H](OC(=O)COCC(=O)O)CC[C@]2(CO2)[C@H]1[C@@]1(C)O[C@@H]1CC=C(C)C [Example 5, O-Carboxymethoxyacetylfumagillol] | 8/8* |
| CO[C@@H]1[C@H](OC(=O)Nc2ccccc2)CC[C@]2(CO2)[C@H]1[C@@]1(C)O[C@@H]1CC=C(C)C [Example 11, O-Phenylcarbamoylfumagillol] | 9/9* |
| CO[C@@H]1[C@H](OCc2ccccc2)CC[C@]2(CO2)[C@H]1[C@@]1(C)O[C@@H]1CC=C(C)C [Example 17, O-Benzylfumagillol] | 7/8* |

Same assay, conditions: rats with angiogenesis inhibitory activity / rats tested; sample pellet 20 »g; judged after 10 days

| SMILES | Inhibition rate |
| --- | --- |
| CO[C@@H]1[C@H](OC(=O)CCC(=O)O)CC[C@]2(CO2)[C@H]1[C@@]1(C)O[C@@H]1CC=C(C)C [Example 2, Sodium salt of O-(3-carboxypropionyl)fumagillol] | 6/6 |
| CO[C@@H]1[C@H](OC(=O)CCCC(=O)O)CC[C@]2(CO2)[C@H]1[C@@]1(C)O[C@@H]1CC=C(C)C [Example 4, Sodium salt of O-(4-carboxybutanoyl)fumagillol] | 6/7 |
| CO[C@@H]1[C@H](OC(=O)c2ccccc2C(=O)O)CC[C@]2(CO2)[C@H]1[C@@]1(C)O[C@@H]1CC=C(C)C [Example 6, O-(2-Carboxybenzoyl)fumagillol] | 6/7 |
| CO[C@@H]1[C@H](OC)CC[C@]2(CO2)[C@H]1[C@@]1(C)O[C@@H]1CC=C(C)C [Example 14, O-Methylfumagillol] | 4/8 |
| CO[C@@H]1[C@H](OCc2ccc(Br)cc2)CC[C@]2(CO2)[C@H]1[C@@]1(C)O[C@@H]1CC=C(C)C [Example 18, O-(p-Bromobenzyl)fumagillol] | 7/7 |
| CO[C@@H]1[C@H](OS(=O)(=O)c2ccc(C)cc2)CC[C@]2(CO2)[C@H]1[C@@]1(C)O[C@@H]1CC=C(C)C [Example 20, O-(p-Toluenesulfonyl)fumagillol] | 3/4 |
| CO[C@@H]1[C@H](OS(C)(=O)=O)CC[C@]2(CO2)[C@H]1[C@@]1(C)O[C@@H]1CC=C(C)C [Example 21, O-Methylsulfonylfumagillol] | 4/4 |
| CO[C@@H]1[C@H](OC(=O)Oc2ccccc2)CC[C@]2(CO2)[C@H]1[C@@]1(C)O[C@@H]1CC=C(C)C [Example 22, O-Phenoxycarbonylfumagillol] | 5/8 |
| CO[C@@H]1[C@H](OC(N)=O)CC[C@]2(CO2)[C@H]1[C@@]1(C)O[C@@H]1CC=C(C)C [Example 23, O-Carbamoylfumagillol] | 6/8 |
| CO[C@@H]1[C@H](OC(=O)N2CCOCC2)CC[C@]2(CO2)[C@H]1[C@@]1(C)O[C@@H]1CC=C(C)C [Example 24, O-Morpholinocarbonylfumagillol] | 5/12 |
| CO[C@@H]1[C@H](OC(=O)N2CCCCC2)CC[C@]2(CO2)[C@H]1[C@@]1(C)O[C@@H]1CC=C(C)C [Example 25, O-Piperidinocarbonylfumagillol] | 6/8 |
| CO[C@@H]1[C@H](OC(=O)NN)CC[C@]2(CO2)[C@H]1[C@@]1(C)O[C@@H]1CC=C(C)C [Example 26, O-Carbazoylfumagillol] | 6/6 |
| CO[C@@H]1[C@H](OC(=O)n2ccnc2)CC[C@]2(CO2)[C@H]1[C@@]1(C)O[C@@H]1CC=C(C)C [Example 27, O-(1-Imidazolylcarbonyl)fumagillol] | 3/7 |
| CO[C@@H]1[C@H](OC(=O)NCCN(C)C)CC[C@]2(CO2)[C@H]1[C@@]1(C)O[C@@H]1CC=C(C)C [Example 28, O-(2-Dimethylaminoethylcarbamoyl)fumagillol] | 11/11 |
| CO[C@@H]1[C@H](OC(=O)NC(C)=O)CC[C@]2(CO2)[C@H]1[C@@]1(C)O[C@@H]1CC=C(C)C [Example 29, O-Acetylcarbamoylfumagillol] | 7/7 |
| CO[C@@H]1[C@H](OC(=O)NC(=O)C(Cl)Cl)CC[C@]2(CO2)[C@H]1[C@@]1(C)O[C@@H]1CC=C(C)C [Example 30, O-Dichloroacetylcarbamoylfumagillol] | 4/8 |
| CO[C@@H]1[C@H](OC(=O)NC(=O)C(Cl)(Cl)Cl)CC[C@]2(CO2)[C@H]1[C@@]1(C)O[C@@H]1CC=C(C)C [Example 31, O-Trichloroacetylcarbamoylfumagillol] | 5/6 |
| CO[C@@H]1[C@H](OC(=O)NC(=O)c2ccccc2)CC[C@]2(CO2)[C@H]1[C@@]1(C)O[C@@H]1CC=C(C)C [Example 32, O-Benzoylcarbamoylfumagillol] | 9/12 |
| C=C(C)C(=O)NC(=O)O[C@@H]1CC[C@]2(CO2)[C@@H]([C@@]2(C)O[C@@H]2CC=C(C)C)[C@@H]1OC [Example 33, O-Methacryloylcarbamoylfumagillol] | 4/6 |

| SMILES | Inhibition rate |
| --- | --- |
| CO[C@@H]1[C@H](OC(=O)NCCCl)CC[C@]2(CO2)[C@H]1[C@@]1(C)O[C@@H]1CC=C(C)C [Example 34, O-(2-Chloroethylcarbamoyl)fumagillol] | 4/4 |
| CO[C@@H]1[C@H](OC(=O)Nc2ccc(Cl)cc2)CC[C@]2(CO2)[C@H]1[C@@]1(C)O[C@@H]1CC=C(C)C [Example 35, O-(p-Chlorophenylcarbamoyl)fumagillol] | 4/8 |
| CO[C@@H]1[C@H](OC(=O)Nc2ccc(F)cc2F)CC[C@]2(CO2)[C@H]1[C@@]1(C)O[C@@H]1CC=C(C)C [Example 37, O-(2,4-Difluorophenylcarbamoyl)fumagillol] | 11/11 |
| CO[C@@H]1[C@H](OC(=O)NS(=O)(=O)c2ccc(C)cc2)CC[C@]2(CO2)[C@H]1[C@@]1(C)O[C@@H]1CC=C(C)C [Example 38, O-(p-Toluenesulfonylcarbamoyl)fumagillol] | 13/15 |
| CCN1CCN(C(=O)O[C@@H]2CC[C@]3(CO3)[C@@H]([C@@]3(C)O[C@@H]3CC=C(C)C)[C@@H]2OC)CC1 [Example 39, O-[1-(4-Ethylpiperazinyl)carbonyl]fumagillol] | 8/8 |
| CO[C@@H]1[C@H](OC(=O)NC(=O)COC(C)=O)CC[C@]2(CO2)[C@H]1[C@@]1(C)O[C@@H]1CC=C(C)C [Example 40, O-Acetoxyacetylcarbamoylfumagillol] | 6/6 |
| CO[C@@H]1[C@H](OC(=O)NC(=O)CSC(C)=O)CC[C@]2(CO2)[C@H]1[C@@]1(C)O[C@@H]1CC=C(C)C [Example 41, O-Acetylthioacetylcarbamoylfumagillol] | 2/4 |
| CO[C@@H]1[C@H](OC(=O)NC(=O)CSc2nc3ccccc3s2)CC[C@]2(CO2)[C@H]1[C@@]1(C)O[C@@H]1CC=C(C)C [Example 42, O-(2-Benzothiazolylthioacetylcarbamoyl)fumagillol] | 7/7 |
| CO[C@@H]1[C@H](OC(=O)NC(=O)CSc2cccc[n+]2[O-])CC[C@]2(CO2)[C@H]1[C@@]1(C)O[C@@H]1CC=C(C)C [Example 43, O-[(Pyridine-N-oxide-2-yl)thioacetylcarbamoyl]fumagillol] | 7/7 |
| CCN(CC)CC(=O)NC(=O)O[C@@H]1CC[C@]2(CO2)[C@@H]([C@@]2(C)O[C@@H]2CC=C(C)C)[C@@H]1OC [Example 44, O-Diethylaminoacetylcarbamoylfumagillol] | 7/7 |
| CO[C@@H]1[C@H](OC(c2ccccc2)c2ccccc2)CC[C@]2(CO2)[C@H]1[C@@]1(C)O[C@@H]1CC=C(C)C [Example 45, O-Diphenylmethylfumagillol] | 8/13 |
| CO[C@@H]1[C@H](OCc2cccc3ccccc23)CC[C@]2(CO2)[C@H]1[C@@]1(C)O[C@@H]1CC=C(C)C [Example 46, O-(1-Naphthylmethyl)fumagillol] | 7/10 |
| CO[C@@H]1[C@H](OC(=O)CCCCl)CC[C@]2(CO2)[C@H]1[C@@]1(C)O[C@@H]1CC=C(C)C [Example 49, O-(4-Chlorobutyryl)fumagillol] | 4/5 |
| CO[C@@H]1[C@H](OC(=O)NC(=O)CSc2nnnn2CCN(C)C)CC[C@]2(CO2)[C@H]1[C@@]1(C)O[C@@H]1CC=C(C)C [Example 52, O-[[1-(2-Dimethylaminoethyl)tetrazol]-5-yl-thioacetylcarbamoyl]fumagillol] | 6/8 |
| CO[C@@H]1[C@H](OC(=O)NC(=O)CSc2nnc(C)s2)CC[C@]2(CO2)[C@H]1[C@@]1(C)O[C@@H]1CC=C(C)C [Example 53, O-[(2-methyl-1,3,4-thiadiazol-5-yl)thioacetylcarbamoyl]fumagillol] | 8/8 |
| CO[C@@H]1[C@H](OC(=O)NC(=O)CSc2cccc3ccccc23)CC[C@]2(CO2)[C@H]1[C@@]1(C)O[C@@H]1CC=C(C)C [Example 54, O-(1-Naphthalenethioacetylcarbamoyl)fumagillol] | 5/5 |
| CO[C@@H]1[C@H](OC(=O)NCC[N+](C)(C)C)CC[C@]2(CO2)[C@H]1[C@@]1(C)O[C@@H]1CC=C(C)C [Example 56, O-[2-(N,N,N-Trimethylammonio)ethylcarbamoyl]fumagillol iodide] | 4/7 |
| CO[C@@H]1[C@H](OC(=O)N(CCN(C)C)C(C)=O)CC[C@]2(CO2)[C@H]1[C@@]1(C)O[C@@H]1CC=C(C)C [Example 57, O-[N-Acetyl-(2-dimethylaminoethylcarbamoyl)]fumagillol] | 6/6 |
